In patent US9708377B2, “Scorpion toxin analogue and method for treating autoimmune diseases” (MONASH UNIVERSITY, priority 2013, dated 2017):

Legend:
rat Kv1.3 channels = rat Kv1.3 channels (Rattus norvegicus, UniProt P15384); details: Lebrun B et al., 1997; read-out: IC50 inhibition of rat Kv1.3 channels; cited from earlier work
Kv1.3 [1] = biological target: T1, Kv1.3 (Rattus norvegicus, UniProt P15384); details: C-terminal amidation; cited from earlier work
Kv1.1 = Kv1.1 (Homo sapiens, UniProt Q09470); details: Kv1.1 complex; cited from earlier work
[2] = system: rat brain synaptosomal membranes; details: cited from earlier work
Kv1.3 [3] = biological target: T1, Kv1.3; details: Kv1.3 complex; cited from earlier work
[4] = system: voltage-gated K+ channels; details: rat brain synaptosomal membranes; read-out: IC50 competition with 125I-kaliotoxin binding; cited from earlier work
mKv1.1 channels = biological target: T2, mKv1.1 channels (Mus musculus, UniProt P16388); assay: Whole-cell patch-clamp block of Kv1.1 channels in L929 cells; type: cell-based; details: for current block on Kv1.1 channels: 100 nM, n=3, preliminary
T2 construct: expressed in transfected cells
Experimental: Cells and Cell Lines—L929 mouse fibroblast cells stably expressing mKv1.1 and mKv1.3 channels (Grissmer S et al., 1994) were maintained in DMEM medium (Invitrogen Corporation, Carlsbad, Calif., United States of America) supplemented with 100 IU/mL penicillin, 0.1 μg/mL streptomycin, 2 mM L-glutamine, 10% heat-inactivated foetal bovine serum, and 0.5 mg/mL G418 (EMD Chemicals, Gibbstown, N.J., United States of America).
Electrophysiological Analysis—Experiments were conducted at room temperature in the whole-cell configuration of the patch-clamp technique. A manual setup and an automated Port-a-patch setup (Nanion, North Brunswick, N.J., United States of America) were used in parallel, both linked to a HEKA EPC10USB amplifier. […] The bath solution contained (in mM): 160 NaCl, 4.5 KCl, 2 CaCl2, 1 MgCl2, 10 HEPES, pH 7.2, 300 mOsm. Kv currents were elicited every 30 s by 200-ms depolarising pulses from a holding potential of −80 mV to 40 mV. Kd values and Hill coefficients were determined by fitting the Hill equation to the reduction of peak current measured at 40 mV.

T2 sequence (P16388 whole entry): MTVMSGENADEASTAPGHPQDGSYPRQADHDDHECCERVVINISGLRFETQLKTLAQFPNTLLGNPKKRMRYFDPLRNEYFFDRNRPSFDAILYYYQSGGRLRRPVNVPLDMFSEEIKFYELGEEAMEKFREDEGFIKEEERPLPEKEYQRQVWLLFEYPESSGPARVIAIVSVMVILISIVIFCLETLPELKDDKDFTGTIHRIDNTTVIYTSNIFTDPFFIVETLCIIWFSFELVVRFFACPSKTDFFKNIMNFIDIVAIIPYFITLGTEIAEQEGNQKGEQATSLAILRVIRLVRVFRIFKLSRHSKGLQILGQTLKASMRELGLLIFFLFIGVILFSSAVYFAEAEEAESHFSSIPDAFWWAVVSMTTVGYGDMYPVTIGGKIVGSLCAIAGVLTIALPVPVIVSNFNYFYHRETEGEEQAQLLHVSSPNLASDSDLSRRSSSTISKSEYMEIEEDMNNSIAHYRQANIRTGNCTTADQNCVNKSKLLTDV
T1 sequence (P15384 whole entry): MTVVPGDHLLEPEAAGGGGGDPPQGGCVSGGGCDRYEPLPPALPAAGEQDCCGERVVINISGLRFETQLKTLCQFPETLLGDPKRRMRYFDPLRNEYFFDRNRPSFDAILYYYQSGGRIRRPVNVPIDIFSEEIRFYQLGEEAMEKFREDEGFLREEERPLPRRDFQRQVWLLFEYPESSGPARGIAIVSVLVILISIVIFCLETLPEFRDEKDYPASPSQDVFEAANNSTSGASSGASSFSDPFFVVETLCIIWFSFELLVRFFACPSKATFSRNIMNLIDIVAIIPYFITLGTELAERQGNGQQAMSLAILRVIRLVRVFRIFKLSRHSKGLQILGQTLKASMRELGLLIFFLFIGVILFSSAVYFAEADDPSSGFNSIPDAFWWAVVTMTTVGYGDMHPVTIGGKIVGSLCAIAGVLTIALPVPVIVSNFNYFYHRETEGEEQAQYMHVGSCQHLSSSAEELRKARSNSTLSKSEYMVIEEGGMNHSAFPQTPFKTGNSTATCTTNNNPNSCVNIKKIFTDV
Sequence of Kv1.1 (Q09470 whole entry): as the sequence (P16388 whole entry) above, with A9V, T14A, I202V, T213N, I449M, A471V, G476A, D482N counted along it
Sequence of rat Kv1.3 channels (P15384 whole entry): as the sequence (P15384 whole entry) above

Compound: ASCRTPKDCADPCRKETGCPYGKCMNRKCKCNRC [HsTX1]
- IC50 (rat Kv1.3 channels): ~0.012 nM
- affinity for Kv1.3 of amidated form compared to synthetic carboxylated form (Kv1.3 [1]): five-fold greater affinity for Kv1.3
- Gb (exp) experimental binding free energy (Kv1.1): -11.1 ± 0.1 kcal/mol
- competition with 125I-apamin binding [2]: did not compete
- Gb (exp) experimental binding free energy (Kv1.3 [3]): -14.9 ± 0.2 kcal/mol
- IC50 [4]: ~0.001 nM

Compound: CSCC[C@@H]1NC(=O)[C@@H]2CSSC[C@H](NC(=O)[C@H](CO)NC(=O)[C@H](C)N)C(=O)N[C@@H](CCCNC(=N)N)C(=O)N[C@@H]([C@@H](C)O)C(=O)N3CCC[C@H]3C(=O)N[C@@H](CCCCN)C(=O)N[C@@H](CC(=O)O)C(=O)N[C@H]3CSSC[C@H](NC(=O)[C@H](CCCCN)NC(=O)[C@H](CCCNC(=N)N)NC(=O)[C@H](CC(N)=O)NC1=O)C(=O)N[C@@H](CCCCN)C(=O)N[C@H]1CSSC[C@H](NC(=O)[C@@H]4CCCN4C(=O)[C@H](CC(=O)O)NC(=O)[C@H](C)NC3=O)C(=O)N[C@@H](C)C(=O)N[C@@H](CCCCN)C(=O)N[C@@H](CCC(=O)O)C(=O)N[C@@H]([C@@H](C)O)C(=O)NCC(=O)N[C@@H](CSSC[C@@H](C(N)=O)NC(=O)[C@H](CCCNC(=N)N)NC(=O)[C@H](CC(N)=O)NC1=O)C(=O)N1CCC[C@H]1C(=O)N[C@@H](Cc1ccc(O)cc1)C(=O)NCC(=O)N[C@@H](CCCCN)C(=O)N2 [HsTX1[R14A]]
- IC50 (mKv1.1 channels): > 100 nM
- current block on Kv1.1 channels (mKv1.1 channels): 10-16%

Compound: CC[C@@H]1NC(=O)[C@@H]2CSSC[C@@H]3NC(=O)[C@H](CCCCN)NC(=O)[C@@H]4CSSC[C@H](NC(=O)[C@H](CC(=O)O)NC(=O)[C@H](CCCCN)NC(=O)[C@@H]5CCCN5C(=O)[C@H]([C@@H](C)O)NC(=O)[C@H](CCCNC(=N)N)NC(=O)[C@@H](NC(=O)[C@H](CO)NC(=O)[C@H](C)N)CSSC[C@H](NC(=O)[C@H](CCCCN)NC(=O)CNC(=O)[C@H](Cc5ccc(O)cc5)NC(=O)[C@@H]5CCCN5C(=O)[C@H](CSSC[C@@H](C(N)=O)NC(=O)[C@H](CCCNC(=N)N)NC(=O)[C@H](CC(N)=O)NC3=O)NC(=O)CNC(=O)[C@H]([C@@H](C)O)NC(=O)[C@H](CCC(=O)O)NC(=O)[C@H](CCCCN)NC1=O)C(=O)N[C@@H](CCSC)C(=O)N[C@@H](CC(N)=O)C(=O)N[C@@H](CCCNC(=N)N)C(=O)N[C@@H](CCCCN)C(=O)N4)C(=O)N[C@@H](C)C(=O)N[C@@H](CC(=O)O)C(=O)N1CCC[C@H]1C(=O)N2 [HsTX1[R14Abu], ASCRTPKDCADPCXKETGCPYGKCMNRKCKCNRC]
- IC50 (mKv1.1 channels): > 100 nM
- current block on Kv1.1 channels (mKv1.1 channels): 15-20%
